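In this assay, cells in 96-well plates receive the compound at five concentrations for 48 hours. Endpoints are linearly interpolated between the surrounding concentrations. The concentration for full growth arrest is given as TGI.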

Data on eight compounds can be found in PubChem BioAssay (NCI).

Some test systems named below: MDA-N; NCI-H226 lung; NCI-H460 lung; CAKI-1 renal; 786-0 renal; SW-620 colon; SK-OV-3 ovarian; UACC-62 melanoma; SNB-75 CNS; OVCAR-8 ovarian; U251 CNS; SF-268 CNS; MALME-3M melanoma; UO-31 renal; SR leukemia; OVCAR-3 ovarian; CCRF-CEM leukemia; RXF 393 renal.
Test in all cases: inhibition of tumour cell growth, NCI panel, 48 h

With `O=c1oc2ccc3ccccc3c2cc1-c1nc2ccccc2o1`, the TGI was more than 54.4 µM in the assay with MDA-N; more than 63.6 µM with NCI-H226 lung; more than 100 µM in the assay on NCI-H460 lung; 40.8 µM in the assay on CAKI-1 renal; 42.2 µM with 786-0 renal; 55.1 µM in the assay on SW-620 colon. Also, the TGI was more than 54.4 µM with SK-OV-3 ovarian; more than 100 µM with UACC-62 melanoma; 40.7 µM with SNB-75 CNS; 51.2 µM with OVCAR-8 ovarian; 53.1 µM in the assay with U251 CNS; 48.4 µM in the assay with SF-268 CNS. For the same compound, the TGI in the assay on MALME-3M melanoma is 26.5 µM; with UO-31 renal it was more than 54.8 µM; in the assay with SR leukemia, more than 85.6 µM; in the assay with OVCAR-3 ovarian it was 32.4 µM; in the assay with CCRF-CEM leukemia, more than 100 µM; in the assay with RXF 393 renal it was 34.4 µM.

In the case of `O=C(CCCl)NNC1=NCCN1`, the TGI in the assay on MDA-N, with NCI-H226 lung, with NCI-H460 lung, with 786-0 renal, with SW-620 colon and with SK-OV-3 ovarian was more than 100 µM throughout. Also, the TGI in the assay on UACC-62 melanoma, in the assay with SNB-75 CNS, with OVCAR-8 ovarian, with U251 CNS, in the assay with SF-268 CNS and in the assay with MALME-3M melanoma was more than 100 µM throughout. The TGI in the assay with UO-31 renal, with SR leukemia, with OVCAR-3 ovarian, with CCRF-CEM leukemia and in the assay on RXF 393 renal was more than 100 µM throughout.

With `CCCCn1c2c(n(CCCC)c1=S)-c1c(n(CCCC)c(=S)n1CCCC)SSSS2`, the TGI was 23.2 µM with MDA-N; 80.8 µM with NCI-H226 lung; more than 93.6 µM with NCI-H460 lung; 19.4 µM in the assay with 786-0 renal; 3.8 µM in the assay on SW-620 colon; more than 100 µM with SK-OV-3 ovarian. In addition, the TGI in the assay with UACC-62 melanoma came to 4.87 µM; with SNB-75 CNS, 37.7 µM; with OVCAR-8 ovarian, 18.1 µM; in the assay on U251 CNS, 12.9 µM; with SF-268 CNS, 21.4 µM; with MALME-3M melanoma, 2.03 µM. For the same compound, the TGI in the assay on UO-31 renal was 2.64 µM; in the assay on SR leukemia it was more than 100 µM; in the assay with OVCAR-3 ovarian, 2.65 µM; with CCRF-CEM leukemia, more than 100 µM; with RXF 393 renal it was 14.6 µM.

Consider `Cn1c2ccccc2c(=NNc2ccccc2C(=O)O)c2ccccc21`, for which the TGI was 46.4 µM in the assay on MDA-N; 45.8 µM with NCI-H226 lung; 39.7 µM in the assay with NCI-H460 lung; 91.2 µM in the assay on CAKI-1 renal; more than 100 µM in the assay with 786-0 renal; 84.8 µM in the assay on SW-620 colon. The TGI in the assay on SK-OV-3 ovarian came out at 71.1 µM; in the assay on UACC-62 melanoma, 54 µM; in the assay with SNB-75 CNS, 67 µM; with OVCAR-8 ovarian, 66.2 µM; in the assay with U251 CNS, 34.6 µM; in the assay on SF-268 CNS, 56.3 µM. The TGI in the assay with MALME-3M melanoma was 43.7 µM; in the assay on UO-31 renal, 64.5 µM; in the assay on SR leukemia, 44.6 µM; with OVCAR-3 ovarian, 28.5 µM; with CCRF-CEM leukemia, 72 µM; in the assay on RXF 393 renal, 33.3 µM.

`COC(=O)CCn1cnc2c(SC)ncnc21`: the TGI with MDA-N, in the assay with NCI-H226 lung, with NCI-H460 lung, with CAKI-1 renal, with 786-0 renal and in the assay on SW-620 colon was more than 100 µM each time. In addition, the TGI with SK-OV-3 ovarian, in the assay on UACC-62 melanoma, with SNB-75 CNS, in the assay with OVCAR-8 ovarian, with SF-268 CNS and with MALME-3M melanoma was more than 100 µM throughout. The TGI in the assay with UO-31 renal, with SR leukemia, in the assay on OVCAR-3 ovarian, in the assay with CCRF-CEM leukemia and with RXF 393 renal was more than 100 µM each time.

In the case of `CC1CCC2C(C(=O)O[C@H]3C4CCO[C@@H](OC5OC(CO)C(O)C(O)C5O)C4[C@@]4(CO)O[C@@H]34)=CO[C@@H](OC3OC(CO)C(O)C(O)C3O)C12` (stereo partly drawn), the TGI in the assay with MDA-N, in the assay on NCI-H226 lung, with NCI-H460 lung, with 786-0 renal, in the assay with SW-620 colon and in the assay on SK-OV-3 ovarian was more than 10 µM in each case. Also, the TGI with UACC-62 melanoma, in the assay with SNB-75 CNS, in the assay on OVCAR-8 ovarian, with U251 CNS, with SF-268 CNS and with MALME-3M melanoma was more than 10 µM throughout. The TGI in the assay with UO-31 renal, in the assay with SR leukemia, in the assay with OVCAR-3 ovarian, in the assay on CCRF-CEM leukemia and in the assay with RXF 393 renal was more than 10 µM throughout.

On to `O=C(Cc1ccc(Cl)c(Cl)c1)N(CCc1ccc(Cl)c(Cl)c1)CCN1CCCC1`, for which the TGI in the assay with MDA-N is 3.15 µM; in the assay with NCI-H226 lung it was 4.91 µM; in the assay on NCI-H460 lung it was 3.39 µM; with CAKI-1 renal it was 3.1 µM; in the assay with 786-0 renal, 3 µM; in the assay with SK-OV-3 ovarian it was 7.49 µM. Moreover, the TGI in the assay with UACC-62 melanoma turned out to be 3.27 µM; in the assay with SNB-75 CNS, 4.31 µM; with OVCAR-8 ovarian, 3.82 µM; in the assay with U251 CNS, 3.15 µM; in the assay with SF-268 CNS, 5.5 µM; in the assay with MALME-3M melanoma it was 3.16 µM. Also, the TGI in the assay on UO-31 renal turned out to be 3.46 µM; in the assay on SR leukemia it was 2.98 µM; with OVCAR-3 ovarian, 5.47 µM; in the assay on CCRF-CEM leukemia it was 3.12 µM; in the assay with RXF 393 renal, 3.34 µM.

With `CC(=O)Oc1ccccc1C(=O)O`, the TGI in the assay on MDA-N, in the assay with NCI-H226 lung, in the assay with CAKI-1 renal, in the assay on 786-0 renal, in the assay with SW-620 colon and in the assay on SK-OV-3 ovarian was more than 100 µM each time. In addition, the TGI in the assay on UACC-62 melanoma, in the assay on SNB-75 CNS, with OVCAR-8 ovarian, in the assay with U251 CNS, with SF-268 CNS and in the assay on MALME-3M melanoma was more than 100 µM each time. In addition, the TGI with UO-31 renal, in the assay with SR leukemia, in the assay on OVCAR-3 ovarian, in the assay with CCRF-CEM leukemia and in the assay on RXF 393 renal was more than 100 µM each time.
